The results in this text go back to publication PMC11647902, “Design, Synthesis, and Biological Evaluation of [1,2,5]Oxadiazolo[3,4-b]pyridin-7-ol as Mitochondrial Uncouplers for the Treatment of Obesity and Metabolic Dysfunction-Associated Steatohepatitis” (Journal of Medicinal Chemistry, 2024).

Some results are limits rather than exact numbers.

The data set deals with L6 rat myoblasts. In words: OCR Seahorse assay (oxygen consumption rate, mitochondrial uncoupling). Particulars: for cellular toxicity in OCR assay: at higher concentrations; for Emax at 200 µM: L6, read-out: % of BAM15 OCR, L6 myoblasts.
Setting [1] is: Rattus norvegicus, integrated area under OCR dose curve above baseline relative to BAM15 of same experiment, NA = No Activity, highest tested concentration 200 μM.

Description: With 7 and 9 derivatives in hand, we screened for mitochondrial uncoupling activity as a function of oxygen consumption rate (OCR). […] OCR was measured using an Agilent Seahorse XF24 or XFe96 Analyzer (Agilent Technologies, Santa Clara, CA). L6 myoblasts were seeded in a Seahorse 24 or 96-well tissue culture plate at a density of 3.5 × 10^4 cells/well. The cells were then allowed to adhere overnight. […] Compounds were injected during the assay, and OCR was measured using 2 min measurement periods. Cells were treated with a single drug concentration per well and measured over a 90 min period. Two wells were used per condition and, where applicable, results from multiple plates were averaged together. The first three measurements after injection for each concentration were averaged to produce a dose curve. […] AUC values were also calculated using the same software.

With `Oc1c(-c2cccc(C(F)(F)F)c2)cnc2nonc12` [9d, 6-(3-(Trifluoromethyl)phenyl)-[1,2,5]oxadiazolo[3,4-b]pyridin-7-ol], the “cellular toxicity in OCR assay” value (L6 myoblasts) is “exhibited cellular toxicity at higher concentrations”. The compound also displayed a concentration giving a half-maximal response (EC50) (Rattus norvegicus, L6) of 26 ± 4.5 µM. For the same compound, the Emax at 200 µM under setting [1] stood at 59%.
The compound `Oc1c(Nc2cccc(C(F)(F)F)c2)cnc2nonc12` [7r, 6-((3-(Trifluoromethyl)phenyl)amino)-[1,2,5]oxadiazolo[3,4-b]pyridin-7-ol] came in with an EC50 (Rattus norvegicus, L6) of 22 ± 1.8 µM. For the same compound, the Emax at 200 µM under setting [1] is 48%.
`Oc1c(Nc2cc(F)ccc2C(F)(F)F)cnc2nonc12` [7af, 6-((5-Fluoro-2-(trifluoromethyl)phenyl)amino)-[1,2,5]oxadiazolo[3,4-b]pyridin-7-ol] showed an EC50 (Rattus norvegicus, L6) of 25 ± 12 µM. Further, the Emax at 200 µM under setting [1] turned out to be 54%.
For the setting “Rattus norvegicus, L6”, `Oc1c(-c2ccc(Cl)cc2)cnc2nonc12` [9e, 6-(4-Chlorophenyl)-[1,2,5]oxadiazolo[3,4-b]pyridin-7-ol] had an EC50 of 12 ± 0.6 µM. The Emax at 200 µM under setting [1] amounted to 52%.
Compound `Oc1c(Nc2ccc3ccccc3c2)cnc2nonc12` [7ax, 6-(Naphthalen-2-ylamino)-[1,2,5]oxadiazolo[3,4-b]pyridin-7-ol] returned an EC50 (Rattus norvegicus, L6) of 13 ± 1.2 µM. Further, the Emax at 200 µM under setting [1] stood at 48%.
Turning to `Oc1c(Nc2ccc(-c3ccccc3F)cc2)cnc2nonc12` [7ak, 6-((2′-Fluoro-[1,1′-biphenyl]-4-yl)amino)-[1,2,5]oxadiazolo[3,4-b]pyridin-7-ol], the “uncoupling (OCR) activity in words” value (L6 myoblasts) is on record as “not tolerated”.
Where the note is “Rattus norvegicus, L6”, `Oc1c(Nc2c(F)c(F)c(F)c(F)c2F)cnc2nonc12` [7z, 6-((Perfluorophenyl)amino)-[1,2,5]oxadiazolo[3,4-b]pyridin-7-ol] displayed an EC50 of 18 ± 2.4 µM. For the same compound, the Emax at 200 µM under setting [1] worked out at 50%.
As to `Oc1c(Nc2ccc(-c3cccc(C(F)(F)F)c3)cc2)cnc2nonc12` [7an, 6-((3′-(Trifluoromethyl)-[1,1′-biphenyl]-4-yl)amino)-[1,2,5]oxadiazolo[3,4-b]pyridin-7-ol], for the setting “L6 myoblasts”, the “cellular toxicity in OCR assay” value is given as “showed cellular toxicity at higher concentrations”. For the setting “Rattus norvegicus, L6”, this compound came in with an EC50 of 0.5 ± 0.1 µM. In addition, under setting [1], the Emax at 200 µM is 25%.
Under “Rattus norvegicus, L6”, `Oc1c(Nc2cc(C(F)(F)F)ccc2F)cnc2nonc12` [7ac, 6-((2-Fluoro-5-(trifluoromethyl)phenyl)amino)-[1,2,5]oxadiazolo[3,4-b]pyridin-7-ol] came in with an EC50 of 11 ± 6.7 µM. In addition, the Emax at 200 µM under setting [1] is 55%.
`Oc1c(Nc2cc(C(F)(F)F)c(F)cc2F)cnc2nonc12` [7ae, 6-((2,4-Difluoro-5-(trifluoromethyl)phenyl)amino)-[1,2,5]oxadiazolo[3,4-b]pyridin-7-ol]: the EC50 (Rattus norvegicus, L6) amounted to 40 ± 4.5 µM. Further, the Emax at 200 µM under setting [1] is 48%.
Consider `Oc1c(Nc2ccc(F)nc2)cnc2nonc12` [7k, 6-((6-Fluoropyridin-3-yl)amino)-[1,2,5]oxadiazolo[3,4-b]pyridin-7-ol], for which the “uncoupling (OCR) activity in words” value (L6 myoblasts) is “inactive”.
Where the note is “Rattus norvegicus, L6”, `Oc1c(Nc2cc(F)cc(C(F)(F)F)c2)cnc2nonc12` [7ag, 6-((3-Fluoro-5-(trifluoromethyl)phenyl)amino)-[1,2,5]oxadiazolo[3,4-b]pyridin-7-ol] displayed an EC50 of 40 ± 0.9 µM. Also, under setting [1], the Emax at 200 µM stood at 38%.
Regarding `Oc1c(Nc2c(F)cccc2C(F)(F)F)cnc2nonc12` [7ad, 6-((2-Fluoro-6-(trifluoromethyl)phenyl)amino)-[1,2,5]oxadiazolo[3,4-b]pyridin-7-ol], the EC50 (Rattus norvegicus, L6) came out at 28 ± 3.9 µM. The Emax at 200 µM under setting [1] was determined as 55%.
Take `Oc1c(-c2ccccc2F)cnc2nonc12` [9a, 6-(2-Fluorophenyl)-[1,2,5]oxadiazolo[3,4-b]pyridin-7-ol]: the EC50 (Rattus norvegicus, L6) is 27 ± 2.8 µM. In addition, under setting [1], the Emax at 200 µM is 69%.
Turning to `Oc1c(-c2ccc(C(F)(F)F)nc2)cnc2nonc12` [7l, 6-(6-(Trifluoromethyl)pyridin-3-yl)-[1,2,5]oxadiazolo[3,4-b]pyridin-7-ol], the “uncoupling (OCR) activity in words” value (L6 myoblasts) was “inactive”.
The compound `CC(C)(C#N)c1ccc(Nc2cnc3nonc3c2O)cc1` [7g, 2-(4-((7-Hydroxy-[1,2,5]oxadiazolo[3,4-b]pyridin-6-yl)amino)phenyl)-2-methylpropanenitrile] yielded an EC50 (Rattus norvegicus, L6) of over 100 µM. Further, the Emax at 200 µM under setting [1] worked out at 10%.
Regarding `Oc1c(Nc2ccccc2F)cnc2nonc12` [7m, 6-((2-Fluorophenyl)amino)-[1,2,5]oxadiazolo[3,4-b]pyridin-7-ol], the “increase of BAM15 uncoupling capability compared with the nonsubstituted aniline” value (7m versus 7a) is recorded as 72%. This compound also gave an EC50 (Rattus norvegicus, L6) of 32 ± 1.8 µM. For the same compound, the Emax at 200 µM under setting [1] turned out to be 69%.
On to `Oc1c(-c2cccc(Cl)c2)cnc2nonc12` [9c, 6-(3-Chlorophenyl)-[1,2,5]oxadiazolo[3,4-b]pyridin-7-ol], for which the EC50 (Rattus norvegicus, L6) amounted to 25 ± 3.1 µM. Under setting [1], the Emax at 200 µM amounted to 61%.
Consider `Oc1c(Nc2ccc(-c3ccc(C(F)(F)F)nc3)cc2)cnc2nonc12` [7ar, 6-((4-(6-(Trifluoromethyl)pyridin-3-yl)phenyl)amino)-[1,2,5]oxadiazolo[3,4-b]pyridin-7-ol], for which it took 7 ± 1.9 µM to reach a half-maximal effect (Rattus norvegicus, L6) (EC50). The Emax at 200 µM under setting [1] stood at 17%.
Turning to `Oc1c(Nc2ccc(-c3ccc(C(F)(F)F)cc3)cc2)cnc2nonc12` [7aq, 6-((4′-(Trifluoromethyl)-[1,1′-biphenyl]-4-yl)amino)-[1,2,5]oxadiazolo[3,4-b]pyridin-7-ol], where the note is “L6 myoblasts”, the “uncoupling (OCR) activity in words” value was “not tolerated” and the “cellular toxicity in OCR assay” value is reported as “exhibited toxicity”.
As to `Oc1c(Nc2ccc(F)c(F)c2)cnc2nonc12` [7x, 6-((3,4-Difluorophenyl)amino)-[1,2,5]oxadiazolo[3,4-b]pyridin-7-ol], the EC50 (Rattus norvegicus, L6) worked out at 63 ± 3.7 µM. Also, under setting [1], the Emax at 200 µM is 55%.
With `Oc1c(Nc2ccc(-c3cc(C(F)(F)F)cc(C(F)(F)F)c3)cc2)cnc2nonc12` [7aw, 6-((3′,5′-Bis(trifluoromethyl)-[1,1′-biphenyl]-4-yl)amino)-[1,2,5]oxadiazolo[3,4-b]pyridin-7-ol], the EC50 (Rattus norvegicus, L6) stood at 41 ± 4.9 µM. The Emax at 200 µM under setting [1] was 20%.
For the compound `Oc1c(Nc2ccccc2)cnc2nonc12` [7a, 6-(Phenylamino)-[1,2,5]oxadiazolo[3,4-b]pyridin-7-ol], the response (Rattus norvegicus, L6) was half-maximal at 59 ± 3.4 µM (EC50). In addition, the Emax at 200 µM under setting [1] was found to be 40%.
Take `Cc1ccc(Nc2cnc3nonc3c2O)cc1` [7b, 6-(p-Tolylamino)-[1,2,5]oxadiazolo[3,4-b]pyridin-7-ol]: a half-maximal effect (Rattus norvegicus, L6) (EC50) was put at 49 µM. The Emax at 200 µM under setting [1] worked out at 38%.
`Oc1c(-c2ccccc2Cl)cnc2nonc12` [9b, 6-(2-Chlorophenyl)-[1,2,5]oxadiazolo[3,4-b]pyridin-7-ol] displayed an EC50 (Rattus norvegicus, L6) of 85 ± 16 µM. Under setting [1], the Emax at 200 µM worked out at 49%.
Take `CCCCc1ccc(Nc2cnc3nonc3c2O)cc1` [7d, 6-((4-Butylphenyl)amino)-[1,2,5]oxadiazolo[3,4-b]pyridin-7-ol]: under setting [1], the Emax at 200 µM turned out to be 19%.
`Oc1c(Nc2ccc(F)cc2)cnc2nonc12` [7o, 6-((4-Fluorophenyl)amino)-[1,2,5]oxadiazolo[3,4-b]pyridin-7-ol]: for the setting “Rattus norvegicus, L6”, the EC50 was over 100 µM. Further, the Emax at 200 µM under setting [1] came to 32%.
In the case of `Oc1c(Nc2cc(F)ccc2F)cnc2nonc12` [7v, 6-((2,5-Difluorophenyl)amino)-[1,2,5]oxadiazolo[3,4-b]pyridin-7-ol], the EC50 (Rattus norvegicus, L6) worked out at 64 ± 5.3 µM. Also, the Emax at 200 µM under setting [1] turned out to be 69%.
Taken in the same sequence, the figures for `CC(C)(C)c1ccc(Nc2cnc3nonc3c2O)cc1` [7e, 6-((4-(tert-Butyl)phenyl)amino)-[1,2,5]oxadiazolo[3,4-b]pyridin-7-ol] were 2 ± 0.4 µM and 7%.
Take `Oc1c(Nc2ccc(SC(F)(F)F)cc2)cnc2nonc12` [7h, 6-((4-((Trifluoromethyl)thio)phenyl)amino)-[1,2,5]oxadiazolo[3,4-b]pyridin-7-ol]: where the note is “Rattus norvegicus, L6”, the midpoint of the response, the EC50, lay at 6 ± 0.4 µM. Besides, the Emax at 200 µM under setting [1] is 38%.
With `Oc1c(Nc2ccc(C(F)(F)F)cc2)cnc2nonc12` [7s, 6-((4-(Trifluoromethyl)phenyl)amino)-[1,2,5]oxadiazolo[3,4-b]pyridin-7-ol], under “Rattus norvegicus, L6”, the EC50 stood at 35 ± 1.7 µM. Moreover, the Emax at 200 µM under setting [1] was found to be 43%.
In turn, `Oc1c(Nc2ccc(F)cc2F)cnc2nonc12` [7u, 6-((2,4-Difluorophenyl)amino)-[1,2,5]oxadiazolo[3,4-b]pyridin-7-ol] yielded an EC50 (Rattus norvegicus, L6) of 40 ± 1.9 µM. Besides, the Emax at 200 µM under setting [1] came to 83%.
With `Oc1c(Nc2c(F)cccc2F)cnc2nonc12` [7w, 6-((2,6-Difluorophenyl)amino)-[1,2,5]oxadiazolo[3,4-b]pyridin-7-ol], the EC50 (Rattus norvegicus, L6) is 52 ± 8.8 µM. Further, under setting [1], the Emax at 200 µM came out at 54%.
Under “Rattus norvegicus, L6”, `Oc1c(Nc2ccccc2C(F)(F)F)cnc2nonc12` [7q, 6-((2-(Trifluoromethyl)phenyl)amino)-[1,2,5]oxadiazolo[3,4-b]pyridin-7-ol] registered an EC50 of 34 ± 4 µM. Besides, the Emax at 200 µM under setting [1] was 57%.
In turn, `Oc1c(Nc2cccc(Cl)c2F)cnc2nonc12` [7aa, 6-((3-Chloro-2-fluorophenyl)amino)-[1,2,5]oxadiazolo[3,4-b]pyridin-7-ol] gave an EC50 (Rattus norvegicus, L6) of 32 ± 1.9 µM. Besides, the Emax at 200 µM under setting [1] is 68%.
As to `Oc1c(Nc2ccc(-c3ccccc3)cc2F)cnc2nonc12` [7ah, 6-((3-Fluoro-[1,1′-biphenyl]-4-yl)amino)-[1,2,5]oxadiazolo[3,4-b]pyridin-7-ol], the EC50 (Rattus norvegicus, L6) is 2 ± 0.5 µM. Under setting [1], the Emax at 200 µM came out at 10%.
For “6-((4-Butoxyphenyl)amino)-[1,2,5]oxadiazolo[3,4-b]pyridin-7-ol [7f]”, the “% of BAM15 OCR” value (L6 myoblasts, integrated area under OCR dose curve above baseline relative to BAM15 of same experiment, NA = No Activity, highest tested concentration 200 μM) was determined as 20%. This compound also showed an EC50 (OCR in L6 myoblasts, NA = No Activity, highest tested concentration 200 μM) of 6 µM.
Turning to `Oc1c(Nc2ccccc2Cl)cnc2nonc12` [7p, 6-((2-Chlorophenyl)amino)-[1,2,5]oxadiazolo[3,4-b]pyridin-7-ol], the EC50 (Rattus norvegicus, L6) stood at 27 ± 1.9 µM. In addition, the Emax at 200 µM under setting [1] was 69%.
Take `Oc1c(-c2cccs2)cnc2nonc12` [9g, 6-(Thiophen-2-yl)-[1,2,5]oxadiazolo[3,4-b]pyridin-7-ol]: for the setting “L6 myoblasts”, the “uncoupling (OCR) activity in words” value is given as “poor activity”. For the setting “Rattus norvegicus, L6”, this compound returned an EC50 of 40 ± 0.3 µM. The Emax at 200 µM under setting [1] came out at 36%.

By EC50 is commonly meant the concentration needed to bring the measured effect to its halfway point. Higher therefore signals weaker potency.
